Experiment: in vitro
Conditions: human, hela cells, % viability

O=C(NCCCC1CCOC1)c1cnn(-c2ccc(F)cc2)c1 (stereo not shown) [CBK283288]
viability at 28.5 h, 10 µM: 92.5%

Cc1cc(N2CCNCC2)c2ccccc2n1 [CBK066895]
viability at 28.5 h, 10 µM: 86.1%

O=C(Cc1ccsc1)N1C[C@@H]2CCCCN(CC3CC3)[C@@H]2C1 [CBK285507]
viability at 28.5 h, 10 µM: 104%

Cc1nc2c(C(=O)NCC3CCCO3)cnn2c(C)c1Cc1cccnc1 (stereo not shown) [CBK162160]
viability at 28.5 h, 10 µM: 85.8%

Oc1cccc(OCCOc2cccc(C(F)(F)F)n2)c1 [CBK115797]
viability at 28.5 h, 10 µM: 84.7%

CCN(CC)C(=O)CN(CCc1ccc(OC)c(OC)c1)C(=O)NCCCSC [CBK158725]
viability at 28.5 h, 10 µM: 94.8%

Cc1ccccc1C(=O)N1C[C@H]2NC(=O)c3ccccc3C(=O)[C@@]2(C)C1 [CBK285316]
viability at 28.5 h, 10 µM: 99.7%

CC[n+]1c(C(C)(C)C)csc1NCC1CC1 [CBK011154B]
viability at 28.5 h, 10 µM: 106%

COc1ccc(F)c(CN(CC(C)(C)CN)C(=O)Nc2ccccc2C(F)(F)F)c1 [CBK002412C]
viability at 28.5 h, 10 µM: 90.1%

O=C(NCc1cccs1)C1(Cc2ccccc2-c2coc3ccccc23)CCOCC1 [CBK286310]
viability at 28.5 h, 10 µM: 108%

COc1ccc(S(=O)(=O)N2CCC(C(=O)N(C)C(c3cnccn3)c3ccccc3C)CC2)cc1 (stereo not shown) [CBK060210]
viability at 28.5 h, 10 µM: 99.3%

COc1ccccc1CN(CCCn1ccnc1)Cc1cccn1C [CBK283160]
viability at 28.5 h, 10 µM: 92.2%

O=C1CC(N2CCN(Cc3ccc4c(c3)OCO4)CC2)C(=O)N1c1ccc(Cl)c(Cl)c1 (stereo not shown) [CBK074549]
viability at 28.5 h, 10 µM: 99.4%

CCOc1cc(NC2CCN(C(=O)Cc3ccncc3)CC2)ncn1 [CBK304752]
viability at 28.5 h, 10 µM: 101%

O=C(Cc1csc2ccccc12)Nc1cnc(-c2ccc(F)cc2)c(-c2ccoc2)n1 [CBK037102]
viability at 28.5 h, 10 µM: 93.3%

Cc1ccc([N+](=O)[O-])cc1NC(=O)CCn1cnc2ccccc2c1=O [CBK267644]
viability at 28.5 h, 10 µM: 106%

O=C(CCc1cccnc1)Nc1ccc(Oc2ccccc2)cc1 [CBK295168]
viability at 28.5 h, 10 µM: 99.8%

Cc1cccc(-c2csc3c(=O)[nH]c(N4CCC(C(=O)NCCc5cccnc5)CC4)nc23)c1 [CBK215627]
viability at 28.5 h, 10 µM: 94%

Cc1cc(N2CCOCC2)c2c(N)c(C)cc(C)c2n1 [CBK126908]
viability at 28.5 h, 10 µM: 83.8%

CCCCNC(=O)Nc1ncc(-c2ccc(C#N)cc2)nc1-c1ccc(C(=O)N2CCOCC2)cc1 [CBK105766]
viability at 28.5 h, 10 µM: 91.1%

N#Cc1ccc(CN2C[C@@H]3OCC(=O)N[C@@H]3C2)cc1 [CBK289261]
viability at 28.5 h, 10 µM: 103%

Cc1cccc(CNc2nccnc2-c2cccc(Cl)c2)c1 [CBK037527]
viability at 28.5 h, 10 µM: 109%

Cc1cc(C)c(C)c(S(=O)(=O)NCc2ccc(C(=O)Nc3ccncc3)cc2)c1C [CBK267193]
viability at 28.5 h, 10 µM: 90.5%

CN(C)CCN(C)C(=O)C1CCN(c2cncc(-c3ccc(O)cc3)n2)CC1 [CBK126928T]
viability at 28.5 h, 10 µM: 88%

Cc1ccc(Oc2c([N+](=O)[O-])c(C)nn2C)c(Br)c1 [CBK000283]
viability at 28.5 h, 10 µM: 90.6%

O=S1(=O)CCC(Sc2nncc3ccccc23)C1 (stereo not shown) [CBK021586]
viability at 28.5 h, 10 µM: 92.2%

CC(C)(O)C1CCCN(C(=O)c2cc(COc3cccc(F)c3)[nH]n2)C1 (stereo not shown) [CBK306653]
viability at 28.5 h, 10 µM: 99.9%

OCCN(Cc1ccncc1)CC1(c2ccc(Cl)cc2)CC1 [CBK282782]
viability at 28.5 h, 10 µM: 90.7%

OCC1CCCN1c1cncc(-c2ccc3ccccc3c2)n1 (stereo not shown) [CBK037197]
viability at 28.5 h, 10 µM: 104%

Cc1cc(O)cc(O)c1/C=N\NC(=O)C1COc2cc3ccccc3cc2O1 (stereo not shown) [CBK262809]
viability at 28.5 h, 10 µM: 80.4%

OC(CNC1CCN(Cc2ccccc2)CC1)COc1ccc2c(c1)OCO2 (stereo not shown) [CBK074645]
viability at 28.5 h, 10 µM: 96.5%

Cc1cc(O)nc(SCC(=O)Nc2cc([N+](=O)[O-])ccc2C)n1 [CBK267488]
viability at 28.5 h, 10 µM: 97.9%

CCOc1ccc(-c2nc(N)ncc2Oc2ccc(OC)cc2)c(O)c1 [CBK288105]
viability at 28.5 h, 10 µM: 101%

CCc1ccc(OC)c(S(=O)(=O)N2CCOCC2)c1 [CBK268214]
viability at 28.5 h, 10 µM: 117%

CCn1c(SCC(=O)N2CCN(c3ccccc3)CC2)nnc1-c1ccc(N)cc1 [CBK265786]
viability at 28.5 h, 10 µM: 103%

COc1ccc(C2CC(c3ccc(Cl)cc3)Nc3ncnn32)c(OC)c1 (stereo not shown) [CBK287848]
viability at 28.5 h, 10 µM: 98.7%

Cc1cc2occ(CC(=O)NCC(C)n3cncn3)c2cc1C (stereo not shown) [CBK282614]
viability at 28.5 h, 10 µM: 101%

Cc1cc(NC(=O)CN(C)c2ncccc2C#N)no1 [CBK304182]
viability at 28.5 h, 10 µM: 77.7%

CC(C)(C)c1cc(C(=O)CSc2nnc(Nc3ccccc3)n2-c2ccccc2)cc(C(C)(C)C)c1O [CBK261033]
viability at 28.5 h, 10 µM: 94.1%

O=C(c1cc(-c2ccncc2)nc2ccc(Cl)cc12)N1CCN(CCc2ccccc2)CC1 [CBK267719]
viability at 28.5 h, 10 µM: 86.6%

C1=Nn2c(nnc2-c2ccncc2)SC(c2ccccc2)=C1 [CBK288535]
viability at 28.5 h, 10 µM: 101%

Cc1ccc(C(=O)N2CN(C(=O)CNC(C)(C)C)CC2(C)C)cc1 [CBK089575C]
viability at 28.5 h, 10 µM: 88.6%

COc1cc(OC)nc(CN2C(=O)C3(CC(=O)N(C)C3=O)c3cc(F)ccc32)n1 (stereo not shown) [CBK075475]
viability at 28.5 h, 10 µM: 110%

O=C(CSc1nnc2ccc(-c3ccccc3)nn12)N1CCCCC1 [CBK287678]
viability at 28.5 h, 10 µM: 100%

COc1ccc(-c2csc(/C(C#N)=C/Nc3ccc(S(=O)(=O)Nc4nccs4)cc3)n2)cc1 [CBK262374]
viability at 28.5 h, 10 µM: 94.6%

CCOc1ccc(NC(=O)Cn2c3c(c(-c4ccccc4)cc2=O)CCCC3)cc1 [CBK294457]
viability at 28.5 h, 10 µM: 85.8%

NS(=O)(=O)c1ccc(CCNC2=CC(=O)CC(c3ccco3)C2)cc1 (stereo not shown) [CBK265852]
viability at 28.5 h, 10 µM: 97%

Cc1nnc(SCC(=O)N/N=C/c2cc([N+](=O)[O-])ccc2O)n1-c1ccccc1 [CBK262768]
viability at 28.5 h, 10 µM: 89.5%

O=C(CSc1nn2cnnc2s1)Nc1ccc(I)cc1 [CBK268913]
viability at 28.5 h, 10 µM: 88.2%

COCCc1nc(Cc2ccc(OC)cc2)nn1CC1COCCO1 (stereo not shown) [CBK307521]
viability at 28.5 h, 10 µM: 89.7%

CC(=O)N(C)c1ncc(Br)cc1C(=O)NCc1nc2ccccc2[nH]1 [CBK076522]
viability at 28.5 h, 10 µM: 95.9%

COc1ccc(C(=O)Nc2ccccc2O)cc1S(=O)(=O)N1CCCCC1 [CBK269665]
viability at 28.5 h, 10 µM: 92.6%

Cn1ccnc1C1(O)CCN(C(=O)Nc2ccccc2F)CC1 [CBK282280]
viability at 28.5 h, 10 µM: 112%

O=C(NCCN1CCOCC1)N(c1ccccc1)c1ccccc1 [CBK270057]
viability at 28.5 h, 10 µM: 92.8%

Cc1cc(C(=O)Nc2ccccc2N2CCOCC2)c(C)o1 [CBK057243]
viability at 28.5 h, 10 µM: 111%

Cc1ccc(C)c(C(NC(=O)CCCn2ccnc2)c2ccncc2)c1 (stereo not shown) [CBK281476]
viability at 28.5 h, 10 µM: 96.1%

CCc1cc(CNS(=O)(=O)c2ccc(C)s2)on1 [CBK283066]
viability at 28.5 h, 10 µM: 99.6%

Nc1cc(O)n(Cc2ccco2)c(=S)n1 [CBK006010]
viability at 28.5 h, 10 µM: 99.9%

O=C1NC2(CCC(=O)N(Cc3ccccc3)CC2)Nc2ccccc21 (stereo not shown) [CBK284439]
viability at 28.5 h, 10 µM: 89.8%

CN1CCN(c2nc3c(N)ncn(CC(O)CO)c-3n2)CC1 (stereo not shown) [CBK262571]
viability at 28.5 h, 10 µM: 108%

O=C(Nc1ccncc1)c1c(O)n(Cc2ccccc2)c2ccccc2c1=O [CBK291222]
viability at 28.5 h, 10 µM: 92%

Fc1ccc(COc2ccc3ccccc3c2CNc2nn[nH]n2)cc1 [CBK268211]
viability at 28.5 h, 10 µM: 86.9%

COc1ccc(OC)c(NC(=O)NCCc2c[nH]cn2)c1 [CBK269956]
viability at 28.5 h, 10 µM: 92.4%

Cc1cc(C)c2c(N)c(-c3ccncc3)sc2n1 [CBK288189]
viability at 28.5 h, 10 µM: 88.7%
